Data reported in patent US20260176270A1 (Exelixis, Inc., priority 2022, published 2026).
Where two headings read alike, the source gives them in different places.

Key:
PKMYT1 = biological target: T1, PKMYT1 (Homo sapiens, UniProt Q99640); experiment: ADP-Glo PKMYT1 ATP-depletion assay; conditions: 50 nM PKMYT1, 13.3 nM CDK1, read-out: Biochemical IC50
T1 construct: PKMYT1 (93 kD, full length, N-terminal GST tag from Signal Chem); GST (N); purchased Signal Chem
T1 sequence (Q99640 1-499): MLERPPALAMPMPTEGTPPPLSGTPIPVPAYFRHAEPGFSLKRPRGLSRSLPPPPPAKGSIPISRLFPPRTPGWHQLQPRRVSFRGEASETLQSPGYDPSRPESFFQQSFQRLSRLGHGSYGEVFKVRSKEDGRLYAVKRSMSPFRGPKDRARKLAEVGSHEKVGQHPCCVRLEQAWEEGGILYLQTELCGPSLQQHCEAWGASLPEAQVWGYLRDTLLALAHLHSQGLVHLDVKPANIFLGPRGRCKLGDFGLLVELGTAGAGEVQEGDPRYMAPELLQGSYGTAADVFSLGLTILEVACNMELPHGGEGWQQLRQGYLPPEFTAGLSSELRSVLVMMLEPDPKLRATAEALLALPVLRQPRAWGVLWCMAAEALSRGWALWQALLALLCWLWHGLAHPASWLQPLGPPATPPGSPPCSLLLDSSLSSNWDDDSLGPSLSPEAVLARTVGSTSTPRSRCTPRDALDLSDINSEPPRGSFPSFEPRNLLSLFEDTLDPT
Protocol: (§1) Biochemical IC50 values were determined via ADP-Glo™ assay. Cellular IC50 values were determined via AlphaLISA assay.
ADP-Glo™ PKMYT1 ATP-depletion assay. The activity of PKMYT1 is measured using a luciferase-luciferin based ATP detection reaction to quantify ATP depletion resulting from kinase-catalyzed phosphoryl transfer to CDK1 or autophosphorylation of PKMYT1. The ADP generated as a byproduct of the reaction is converted to ATP and used to drive a luciferase reaction. Test compounds were dissolved in DMSO and dispensed into Corning 3824 384-well plates prior to the experiment such that the final DMSO concentration was <1%. To the compounds was added 3 μL of PKMYT1 (93 kD, full length, N-terminal GST tag from Signal Chem). The reaction was started by the addition of 2 μL of CDK1 (58 kDa, full length, N-terminal GST tag from Signal Chem) and ATP in assay buffer (50 mM Hepes, 40 mM NaCl, 10 mM MgCl2, 1 mM DTT, 0.1 mg/mL BSA, 2.5 mM MnCl2). Final assay concentrations were 50 nM PKMYT1, 13.3 nM CDK1, and 88 µM ATP. Plates were centrifuged for 1 minute at 1000 RPM and incubated at RT for 120 minutes. After the incubation period, ADP-Glo™ reagent was added and the plates were incubated for another 40 minutes before finally adding the kinase detection reagent. 30 minutes after the addition, plates were placed on a PHERAstar® plate reader and read using the Luminescence Protocol, integration time at 0.5 seconds.

[1] = system: phosphorylation of CDK1 at Thr14 in HCC1806 cells; experiment: Cell lysate AlphaLISA assay measuring inhibition of phosphorylation of CDK1 Thr14; type: cell-based; conditions: read-out: Cellular IC50
Protocol: as §1
Cell lysate AlphaLISA® assay measuring inhibition of phosphorylation of CDK1 Thr14. Inhibition of phosphorylation of CDK1 at Thr14 was determined using AlphaLISA® SureFire® Ultra™ Kit from Perkin Elmer (ALSU-PCDK1-A10K). HCC1806 cells were seeded at 2K cells per well (50 μl/well) in 384-well plates (Corning 3570) and stored overnight at 37° C. and 5% CO2. The following day, the compounds dissolved in DMSO were introduced to the cells and incubated for 4 hours at 37° C. and 5% CO2. The cells were then washed with PBS using Blue®Washer and 10 μl of lysis buffer containing protease inhibitor was added. The plate was placed on an orbital shaker (at 4° C.) for 30 minutes and stored overnight at −80° C. for complete lysing. The next day, the plates were thawed at room temperature for at least 30 min. Reagents were prepared in a dimmed light setting (<100 lumens). The assay was run by first adding 5 μl of the acceptor mix (reaction buffer 1: reaction buffer 2: activation buffer: acceptor beads 47:47:4:2), covering the plate with foil, shaking for 2 minutes and incubating at RT for 60 minutes. The donor mix (dilution buffer: donor beads 47:3) was then added at 5 μl per well, placed on the shaker for 2 minutes and incubated at RT for 60 minutes before reading the plates on a PHERAstar® plate reader. The results were normalized to DMSO (0% Inhibition) and 3 μM of reference compound.

| SMILES | IC50 (PKMYT1) | IC50 ([1]; 4 hours) | IC50 ([1]; Homo sapiens, HCC1806, 4 h) |
| --- | --- | --- | --- |
| NC(=O)c1nc2cccnc2c(-c2cccc3[nH]nc(F)c23)c1N (atropisomer, axis not shown) [Compound 305] | 50 to 500 nM | 1000 to 5000 nM | – |
| Cc1c(O)cccc1-c1c(N)c(C(N)=O)cc2cccnc12 [Compound 61, 7-Amino-8-(3-hydroxy-2-methylphenyl)quinoline-6-carboxamide] | < 50 nM | – | 50 to 500 nM |
| Cc1ccc2c(-c3cccc(O)c3C)c(N)c(C(N)=O)nc2c1 (single isomer, unassigned) [Compound 49, (M)-3-Amino-4-(3-hydroxy-2-methylphenyl)-7-methylquinoline-2-carboxamide] | 500 to 1000 nM | 1000 to 5000 nM | – |
| CCn1ccc2cc(C(N)=O)c(N)c(-c3cccc(O)c3C)c2c1=O [Compound 324] | 50 to 500 nM | 500 to 1000 nM | – |
| NC(=O)c1cc(-c2cccc3[nH]ncc23)c2nccnc2c1 [Compound 75, 8-(1H-indazol-4-yl)quinoxaline-6-carboxamide] | ≥ 5000 nM | – | ≥ 5000 nM |
| Cc1c(CO)cccc1-c1c(N)c(C(N)=O)nc2cccnc12 [Compound 249] | ≥ 5000 nM | – | ≥ 5000 nM |
| Cc1ccncc1-c1c(N)c(C(N)=O)nc2cccnc12 [Compound 184] | 50 to 500 nM | – | ≥ 5000 nM |
| Cc1cc(O)c(C)c(-c2c(N)c(C(N)=O)nc3cccnc23)c1 [Compound 291] | 1000 to 5000 nM | ≥ 5000 nM | – |
| COc1ccnc2c(-c3cccc(O)c3C)c(N)c(C(N)=O)cc12 (atropisomer, axis not shown) [Compound 327] | < 50 nM | < 50 nM | – |
| Cc1c(Cl)cncc1C1=c2ncccc2=NC(C(N)=O)C1N (centres unmarked) [Compound 240] | < 50 nM | 50 to 500 nM | – |
| Cc1c(O)cccc1-c1c(N)c(C(N)=O)nc2cccnc12 [Compound 2, 3-Amino-4-(3-hydroxy-2-methylphenyl)-1,5-naphthyridine-2-carboxamide] | < 50 nM | – | 50 to 500 nM |
| Cc1cc(O)c(C)c(-c2c(N)c(C(N)=O)nc3cccnc23)c1 (atropisomer, axis not shown) [Compound 285] | ≥ 5000 nM | – | ≥ 5000 nM |
| NC(=O)c1cc2nccnc2c(-c2cccc(O)c2C(F)(F)F)c1N [Compound 199] | 50 to 500 nM | – | 1000 to 5000 nM |
| Cc1cnn(C)c1-c1c(N)c(C(N)=O)nc2cccnc12 [Compound 210] | ≥ 5000 nM | – | ≥ 5000 nM |
| Cc1ccc2c(-c3cccc(O)c3C)c(N)c(C(N)=O)nc2c1 (single isomer, unassigned) [Compound 50, (P)-3-amino-4-(3-hydroxy-2-methylphenyl)-7-methylquinoline-2-carboxamide] | ≥ 5000 nM | ≥ 5000 nM | – |
| NC(=O)c1cc2nccnc2c(-c2ccnc3[nH]ncc23)c1N [Compound 182] | 1000 to 5000 nM | – | ≥ 5000 nM |
| NC(=O)c1cc2nccnc2c(-c2c(Cl)ccc3[nH]ncc23)c1N (atropisomer, axis not shown) [Compound 246] | 50 to 500 nM | 500 to 1000 nM | – |
| Cc1ccc2[nH]ncc2c1-c1c(N)c(C(N)=O)cc2ncccc12 [Compound 144] | 50 to 500 nM | – | 1000 to 5000 nM |
| NC(=O)c1nc2cccnc2c(-c2c(F)ccc3[nH]ncc23)c1N [Compound 220] | 50 to 500 nM | 1000 to 5000 nM | – |
| Cc1c(-c2c3c(cc4nccnc24)C(=O)NC(C)(C)N3)ccc(F)c1O (atropisomer, axis not shown) [Compound 313] | ≥ 5000 nM | ≥ 5000 nM | – |
| Cc1c(O)cccc1-c1c(N)c(C(N)=O)nc2nccc(C#N)c12 [Compound 260] | ≥ 5000 nM | – | ≥ 5000 nM |
| Cc1cncc(C2=c3ncccc3=NC(C(N)=O)C2N)c1C (centres unmarked) [Compound 211] | 500 to 1000 nM | – | 1000 to 5000 nM |

Next, values leading:

| IC50 (PKMYT1) | IC50 ([1]; 4 hours) | IC50 ([1]; Homo sapiens, HCC1806, 4 h) | SMILES |
| --- | --- | --- | --- |
| ≥ 5000 nM | ≥ 5000 nM | – | Cc1ccc(O)c(C)c1-c1c(N)c(C#N)cc2nccnc12 (atropisomer, axis not shown) [Compound 301] |
| ≥ 5000 nM | ≥ 5000 nM | – | Cc1ccc(O)c(C)c1-c1c(N)c(C(N)=O)nc2ccc(C(F)(F)F)cc12 (single isomer, unassigned) [Compound 41, (P)-3-amino-4-(3-hydroxy-2,6-dimethylphenyl)-6-(trifluoromethyl)quinoline-2-carboxamide] |
| ≥ 5000 nM | ≥ 5000 nM | – | COc1nc2cc(C(N)=O)c(N)c(-c3cccc(O)c3C)c2nc1C (atropisomer, axis not shown) [Compound 193] |
| < 50 nM | – | < 50 nM | COc1ccnc2c(-c3c(C)ccc(O)c3C)c(N)c(C(N)=O)cc12 [Compound 330] |
| < 50 nM | 50 to 500 nM | – | Cc1c(O)cccc1-c1c(N)c(C(N)=O)cc2nccnc12 (single isomer, unassigned) [Compound 87, (P)-7-Amino-8-(3-hydroxy-2-methylphenyl)quinoxaline-6-carboxamide] |
| ≥ 5000 nM | ≥ 5000 nM | – | Cc1cnc2c(-c3cccc(O)c3C)c(N)c(C(N)=O)cc2n1 (atropisomer, axis not shown) [Compound 201] |
| 50 to 500 nM | – | 50 to 500 nM | Cc1ccc(O)c(C)c1-c1c(N)c(C(N)=O)nc2c(C(F)(F)F)cccc12 [Compound 28, 3-Amino-4-(3-hydroxy-2,6-dimethylphenyl)-8-(trifluoromethyl)quinoline-2-carboxamide] |
| < 50 nM | – | 500 to 1000 nM | Cc1c(O)cccc1-c1c(N)c(C(N)=O)cc2nc(N3CCOCC3)cnc12 [Compound 321] |
| < 50 nM | 50 to 500 nM | – | Cc1ccc(O)c(C)c1-c1c(N)c(C(N)=O)cc2cc(Cl)cnc12 [Compound 177] |
| 500 to 1000 nM | ≥ 5000 nM | – | Cc1ccc2[nH]nc(F)c2c1-c1c(N)c(C(N)=O)cc2nccnc12 [Compound 176] |
| 50 to 500 nM | 500 to 1000 nM | – | Cc1ccc(-c2c(N)c(C(N)=O)nc3cccnc23)c(C)c1O [Compound 292] |
| 50 to 500 nM | – | 1000 to 5000 nM | Cc1ccc(O)c(C)c1-c1c(N)c(C(N)=O)nc2c(F)cccc12 [Compound 25] |
| 1000 to 5000 nM | ≥ 5000 nM | – | Cc1ccc(O)c(C)c1-c1c(N)c(C(N)=O)nc2nccnc12 (single isomer, unassigned) [Compound 128, (M)-7-Amino-8-(3-hydroxy-2,6-dimethylphenyl)pyrido[2,3-b]pyrazine-6-carboxamide] |
| 50 to 500 nM | 500 to 1000 nM | – | Cc1c(O)cccc1-c1c(N)c(C(N)=O)cc2nc(C(F)(F)F)cnc12 [Compound 189] |
| 1000 to 5000 nM | ≥ 5000 nM | – | Cc1ccc(O)c(C)c1-c1c(N)c(C(N)=O)cc2cc(Cl)cnc12 (atropisomer, axis not shown) [Compound 235] |
| < 50 nM | – | 50 to 500 nM | Cc1c(O)cccc1-c1c(N)c(C(N)=O)cc2cc(Cl)cnc12 [Compound 146] |
| 50 to 500 nM | 50 to 500 nM | – | Cc1c(O)cccc1-c1c(N)c(C(N)=O)cc2nc(C(F)(F)F)cnc12 (atropisomer, axis not shown; (P)) [Compound 100, (P)-7-Amino-8-(3-hydroxy-2-methylphenyl)-3-(trifluoromethyl)quinoxaline-6-carboxamide] |
| ≥ 5000 nM | ≥ 5000 nM | – | Cc1cnc2c(-c3c(C)ccc(O)c3C)c(N)c(C(N)=O)cc2n1 (atropisomer, axis not shown) [Compound 223] |
